How the values were obtained:
LNCaP cells [1] = assay: [3H]2-DG glucose uptake assay in LNCaP cells; format: cell-based, human; details: for IC50: Homo sapiens, LNCaP, Krebs-Ringer phosphate buffer, 37° C., 30 min of drug treatment, read-out: IC50 in blocking [3H]2-DG uptake into LNCaP cells; for inhibition of [3H]2-DG uptake into LNCaP cells (screening, in words): each at 5 μM, 30 min of exposure
Method: Screening of the focused compound library to identify lead glucose uptake inhibitors.
Glucose Uptake Assay. LNCaP cells were seeded in six-well plates (3×10^5 cells/well) for 24 h. […] The cells were lysed in […] lysis buffer (10 mM Tris-HCl pH 8.0, 0.1% SDS) and aliquots were taken for measurement of radioactivity using a scintillation counter (Beckman LS6500).

LNCaP cells [2] = assay: MTT cell viability assay, LNCaP; format: cell-based, human; details: Homo sapiens, LNCaP, 72 h, MTT, 10% FBS
Method: Cell Viability Assay. Cell viability was determined using the 3-(4,5-dimethylthiazol-2-yl)-2,5-diphenyltetrazolium bromide (MTT) assay. Cancer cells were seeded at 5000 cells/well and normal cells were seeded at 8000 cells/well in 96-well plates and incubated in 10% FBS-supplemented medium for 24 h. Cells were then treated with individual agents for 72 h. Drug-containing medium was replaced with medium containing MTT (0.5 mg/mL), followed by incubation at 37° C. for 1 h. After removal of medium, the reduced MTT dye in each well was solubilized in 100 μL of DMSO and absorbance at 570 nm was measured.
Compound 30 was evaluated for antiproliferative activity in panels of different human cancer cells lines, including those of prostate, breast and pancreatic cancers. In all experiments, cells were treated with a range of concentrations of Compound 30 in the presence of 10% fetal bovine serum (FBS). Cell viability was then determined after 72 h of treatment using the 3-(4,5-dimethylthiazol-2-yl)-2,5-diphenyltetrazolium bromide (MTT) assay. […] It is noteworthy that despite this high antiproliferative potency, normal human prostate epithelial cells (PrECs) were resistant to the cytotoxic effect of Compound 30 even at 10 μM.

SMILES	IC50 (LNCaP cells [1]) [µM]	IC50 (LNCaP cells [2]) [µM]	inhibition of [3H]2-DG uptake into LNCaP cells (screening, in words) (LNCaP cells [1])
CC1(COc2ccc(/C=C3\SC(=O)NC3=O)cc2)CCCCC1 [Compound 2, (Z)-5-(4-[(1-methylcyclohexyl)methoxy]benzylidene)-thiazolidine-2,4-dione, reference compound]	52	28	–
CC1(CN2C(=O)S/C(=C\c3ccc(O)c(C(F)(F)F)c3)C2=O)CCCCC1 [Compound 4, (Z)-5-(4-hydroxy-3-(trifluoromethyl)benzylidene)-3-((1-methylcyclohexyl)methyl)thiazolidine-2,4-dione, reference compound]	9	6	–
O=C1SC(=Cc2ccc(O)c(C(F)(F)F)c2)C(=O)N1CC(F)(CC(F)(F)F)CC(F)(F)F [Compound 29, 5-(4-Hydroxy-3-trifluoromethyl-benzylidene)-3-[2,4,4,4-tetrafluoro-2-(2,2,2-trifluoro-ethyl)-butyl]-thiazolidine-2,4-dione]	–	–	substantially improved potency relative to compound 5

Continued, in another order:

IC50 (LNCaP cells [1]) [µM]	IC50 (LNCaP cells [2]) [µM]	SMILES	inhibition of [3H]2-DG uptake into LNCaP cells (screening, in words) (LNCaP cells [1])
78	60	CC1(COc2ccc(CC3SC(=O)NC3=O)cc2)CCCCC1 (stereo not shown) [Compound 1, ciglitazone, reference compound]	–
3.5	2.2	O=C1SC(=Cc2ccc(O)c(C(F)(F)F)c2)C(=O)N1CC(CC(F)(F)F)CC(F)(F)F [Compound 28, 5-(4-Hydroxy-3-trifluoromethyl-benzylidene)-3-[4,4,4-trifluoro-2-(2,2,2-trifluoro-ethyl)-butyl]-thiazolidine-2,4-dione]	substantially improved potency relative to compound 5

Reference: patent publication US9174951B2, “Glucose transporter inhibitors” (The Ohio State University Research Foundation, priority 2012, dated 2015)
